Laboratory results published in US8895733B2 (Novartis AG, priority 2010, dated 2014).

Target: T1, Nav 1.7 (Homo sapiens, UniProt Q15858)
T1 construct: expressed in transfected cells
Assay: Whole-cell voltage clamp electrophysiology, automated patch clamp (marker c in Table of Examples)
Format: cell-based
Details: marker c = Automated patch clamp data; read-out: Nav 1.7 activity
Procedure, shortened: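 A voltage protocol weighted toward inactivated-state block was used to test compounds on stably expressing cells, with pulses from −65 mV holding to −10 mV test and −100 mV. Currents came from whole-cell automated patch-clamp recordings, either IonWorks Quattro or other automated instruments, usually in perforated-patch mode.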

T1 sequence (Q15858 whole entry): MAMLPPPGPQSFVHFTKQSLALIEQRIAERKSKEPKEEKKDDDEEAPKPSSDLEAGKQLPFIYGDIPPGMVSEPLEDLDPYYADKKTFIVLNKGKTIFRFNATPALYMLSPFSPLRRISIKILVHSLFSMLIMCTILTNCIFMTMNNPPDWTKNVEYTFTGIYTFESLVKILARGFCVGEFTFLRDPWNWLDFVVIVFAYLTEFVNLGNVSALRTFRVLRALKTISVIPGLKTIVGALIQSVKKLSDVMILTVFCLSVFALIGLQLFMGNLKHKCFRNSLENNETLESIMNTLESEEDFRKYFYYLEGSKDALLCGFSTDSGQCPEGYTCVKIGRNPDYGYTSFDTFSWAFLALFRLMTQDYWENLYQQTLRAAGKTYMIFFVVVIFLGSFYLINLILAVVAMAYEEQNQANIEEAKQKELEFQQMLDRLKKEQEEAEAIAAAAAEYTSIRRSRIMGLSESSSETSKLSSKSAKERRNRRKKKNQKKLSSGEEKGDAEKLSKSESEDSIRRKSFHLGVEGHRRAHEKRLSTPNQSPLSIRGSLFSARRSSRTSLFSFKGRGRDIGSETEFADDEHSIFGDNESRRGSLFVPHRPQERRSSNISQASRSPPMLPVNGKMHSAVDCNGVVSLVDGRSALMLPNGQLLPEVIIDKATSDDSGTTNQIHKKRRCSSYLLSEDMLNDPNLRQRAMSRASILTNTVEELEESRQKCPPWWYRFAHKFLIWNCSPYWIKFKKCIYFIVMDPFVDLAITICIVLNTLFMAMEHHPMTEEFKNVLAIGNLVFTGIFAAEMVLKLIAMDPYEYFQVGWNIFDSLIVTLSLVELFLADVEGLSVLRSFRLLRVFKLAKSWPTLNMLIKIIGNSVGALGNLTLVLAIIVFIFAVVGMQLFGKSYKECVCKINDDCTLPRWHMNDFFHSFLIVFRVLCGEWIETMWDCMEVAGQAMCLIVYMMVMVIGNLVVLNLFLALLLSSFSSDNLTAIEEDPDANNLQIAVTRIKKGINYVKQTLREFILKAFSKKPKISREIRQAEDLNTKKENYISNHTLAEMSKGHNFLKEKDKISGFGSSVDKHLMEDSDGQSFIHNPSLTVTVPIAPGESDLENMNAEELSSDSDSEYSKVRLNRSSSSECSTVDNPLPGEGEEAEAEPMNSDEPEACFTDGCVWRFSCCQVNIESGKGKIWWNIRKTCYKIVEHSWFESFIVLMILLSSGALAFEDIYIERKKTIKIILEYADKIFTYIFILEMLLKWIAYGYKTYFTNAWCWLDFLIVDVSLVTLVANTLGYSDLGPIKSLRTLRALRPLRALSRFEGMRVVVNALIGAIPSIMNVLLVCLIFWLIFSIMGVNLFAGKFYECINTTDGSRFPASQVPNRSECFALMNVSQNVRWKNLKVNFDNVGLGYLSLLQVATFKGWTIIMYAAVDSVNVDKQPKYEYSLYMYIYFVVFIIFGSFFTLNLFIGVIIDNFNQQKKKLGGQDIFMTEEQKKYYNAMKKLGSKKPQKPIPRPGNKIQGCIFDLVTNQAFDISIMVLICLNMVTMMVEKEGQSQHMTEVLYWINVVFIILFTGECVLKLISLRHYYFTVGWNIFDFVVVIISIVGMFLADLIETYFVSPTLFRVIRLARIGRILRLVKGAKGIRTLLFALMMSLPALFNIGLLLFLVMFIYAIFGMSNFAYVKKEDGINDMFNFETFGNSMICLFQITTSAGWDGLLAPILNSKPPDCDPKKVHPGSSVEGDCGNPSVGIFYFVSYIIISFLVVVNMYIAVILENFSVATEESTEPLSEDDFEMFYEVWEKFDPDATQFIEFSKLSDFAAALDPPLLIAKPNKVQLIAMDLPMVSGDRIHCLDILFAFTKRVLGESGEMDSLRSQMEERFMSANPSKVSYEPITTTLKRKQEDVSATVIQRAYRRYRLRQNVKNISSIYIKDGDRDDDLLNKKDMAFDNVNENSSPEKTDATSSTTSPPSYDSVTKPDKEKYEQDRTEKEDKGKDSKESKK

First: CN(c1ccccc1)c1nc(N)nc(-c2noc(-c3ccc(NCC(F)(F)F)cn3)n2)n1 [Example 471, 2-N-methyl-2-N-phenyl-6-(5-{5-[(2,2,2-trifluoroethyl)amino]pyridin-2-yl}-1,2,4-oxadiazol-3-yl)-1,3,5-triazine-2,4-diamine]
Second: CN(c1ccccc1)c1nc(N)nc(-c2noc(-c3ncccc3OCC(F)(F)F)n2)n1 [Example 486, 2-N-methyl-2-N-phenyl-6-{5-[3-(2,2,2-trifluoroethoxy)pyridin-2-yl]-1,2,4-oxadiazol-3-yl}-1,3,5-triazine-2,4-diamine]
The IC50 of the first is 1.7-fold lower: 731 nM for the first, 1220 nM for the second. The first is the more potent here.

Compared with `CN(c1ccccc1)c1nc(N)nc(-c2noc(-c3ccc(N4CCCCC4)nc3)n2)n1` [Example 473, 2-N-methyl-2-N-phenyl-6-{5-[6-(piperidin-1-yl)pyridin-3-yl]-1,2,4-oxadiazol-3-yl}-1,3,5-triazine-2,4-diamine], `CN(C)C(=O)c1ccc(-c2nc(-c3nc(N)nc(N(C)c4ccccc4)n3)no2)cn1` [Example 478, 5-{3-[4-Amino-6-(methyl-phenyl-amino)-[1,3,5]triazin-2-yl]-[1,2,4]oxadiazol-5-yl}-pyridine-2-carboxylic acid dimethylamide] is 28-fold higher in IC50: 310 nM for the first, 8810 nM for the second.

`CN(c1ccc(F)cc1)c1nc(N)nc(-c2noc(-c3ncccc3F)n2)n1` [Example 474, 2-N-(4-fluorophenyl)-6-[5-(3-fluoropyridin-2-yl)-1,2,4-oxadiazol-3-yl]-2-N-methyl-1,3,5-triazine-2,4-diamine] and `CN(c1cccc(F)c1)c1nc(N)nc(-c2noc(-c3ncccc3F)n2)n1` [Example 476, 2-N-(3-fluorophenyl)-6-[5-(3-fluoropyridin-2-yl)-1,2,4-oxadiazol-3-yl]-2-N-methyl-1,3,5-triazine-2,4-diamine] are within 1.5-fold of each other in IC50: 289 nM for the first, 366 nM for the second.

Compared with `CN(c1nc(N)nc(-c2noc(-c3ncccc3F)n2)n1)c1ccccc1F` [Example 475, 2-N-(2-fluorophenyl)-6-[5-(3-fluoropyridin-2-yl)-1,2,4-oxadiazol-3-yl]-2-N-methyl-1,3,5-triazine-2,4-diamine], `CN(c1ccccc1)c1nc(N)nc(-c2noc(-c3ncccc3F)n2)n1` [Example 482, 6-[5-(3-Fluoropyridin-2-yl)-[1,2,4]oxadiazol-3-yl]-N-methyl-N-phenyl-[1,3,5]triazine-2,4-diamine] is 9.4-fold higher in IC50: 69 nM for the first, 647 nM for the second.

Compared with `CN(c1ccccc1)c1nc(N)nc(-c2noc(-c3cccnn3)n2)n1` [Example 479, 2-N-methyl-2-N-phenyl-6-[5-(pyridazin-3-yl)-1,2,4-oxadiazol-3-yl]-1,3,5-triazine-2,4-diamine], `CCOc1cccnc1-c1nc(-c2nc(N)nc(N(C)c3ccccc3)n2)no1` [Example 480, 6-[5-(3-ethoxypyridin-2-yl)-1,2,4-oxadiazol-3-yl]-2-N-methyl-2-N-phenyl-1,3,5-triazine-2,4-diamine] is 3.6-fold lower in IC50: 1140 nM for the first, 313 nM for the second. The second is the more potent here.

Going from `CN(c1ccccc1)c1nc(N)nc(-c2noc(-c3ncccc3NC3CC3)n2)n1` [Example 481, 6-{5-[3-(Cyclopropylamino)pyridin-2-yl]-1,2,4-oxadiazol-3-yl}-2-N-methyl-2-N-phenyl-1,3,5-triazine-2,4-diamine] to `CN(c1ccccc1)c1nc(N)nc(-c2noc(-c3ncccc3NC3CCC3)n2)n1` [Example 488, 6-{5-[3-(cyclobutylamino)pyridin-2-yl]-1,2,4-oxadiazol-3-yl}-2-N-methyl-2-N-phenyl-1,3,5-triazine-2,4-diamine], the IC50 falls from 1900 nM to 838 nM (2.3-fold).

First: COCCOc1cccnc1-c1nc(-c2nc(N)nc(N(C)c3ccccc3)n2)no1 [Example 483, 6-{5-[3-(2-methoxyethoxy)pyridin-2-yl]-1,2,4-oxadiazol-3-yl}-2-N-methyl-2-N-phenyl-1,3,5-triazine-2,4-diamine]
Second: CC(C)Oc1cccnc1-c1nc(-c2nc(N)nc(N(C)c3ccccc3)n2)no1 [Example 484, 2-N-methyl-2-N-phenyl-6-{5-[3-(propan-2-yloxy)pyridin-2-yl]-1,2,4-oxadiazol-3-yl}-1,3,5-triazine-2,4-diamine]
The IC50 of the first is 3.5-fold higher: 2400 nM for the first, 695 nM for the second.

Compared with `CN(c1ccccc1)c1nc(N)nc(-c2noc(-c3ncccc3NCC3CC3)n2)n1` [Example 487, 6-{5-[3-(Cyclopropylmethylamino)-pyridin-2-yl]-[1,2,4]oxadiazol-3-yl}-N-methyl-N-phenyl-[1,3,5]triazine-2,4-diamine], `CN(c1ccccc1)c1nc(N)nc(-c2noc(-c3ncccc3OC3CCC3)n2)n1` [Example 491, 6-[5-(3-cyclobutoxypyridin-2-yl)-1,2,4-oxadiazol-3-yl]-2-N-methyl-2-N-phenyl-1,3,5-triazine-2,4-diamine] is lower in IC50: > 6590 nM for the first, 1040 nM for the second.

Compared with `CN(c1ccccc1)c1nc(N)nc(-c2noc(-c3ncccc3N3CCOCC3)n2)n1` [Example 490, 2-N-methyl-6-{5-[3-(morpholin-4-yl)pyridin-2-yl]-1,2,4-oxadiazol-3-yl}-2-N-phenyl-1,3,5-triazine-2,4-diamine], `CN(c1ccccc1)c1nc(N)nc(-c2noc(N3CC(Oc4ccccn4)C3)n2)n1` [Example 499, 2-N-methyl-2-N-phenyl-6-{5-[3-(pyridin-2-yloxy)azetidin-1-yl]-1,2,4-oxadiazol-3-yl}-1,3,5-triazine-2,4-diamine] is 9.9-fold higher in IC50: 464 nM for the first, 4590 nM for the second. The first is the more potent here.

`CC(C)OC1CN(c2nc(-c3nc(N)nc(N(C)c4ccccc4)n3)no2)C1` [Example 492, 6-[5-(3-Isopropoxyazetidin-1-yl)-[1,2,4]oxadiazol-3-yl]-N-methyl-N-phenyl-[1,3,5]triazine-2,4-diamine] and `COC1CN(c2nc(-c3nc(N)nc(N(C)c4ccccc4)n3)no2)C1` [Example 493, 6-[5-(3-methoxyazetidin-1-yl)-1,2,4-oxadiazol-3-yl]-2-N-methyl-2-N-phenyl-1,3,5-triazine-2,4-diamine] cannot be ordered by IC50: > 8080 nM for the first, > 9350 nM for the second.

Compared with `CN(c1ccccc1)c1nc(N)nc(-c2noc(N3CC(OCC(F)(F)F)C3)n2)n1` [Example 494, 2-N-methyl-2-N-phenyl-6-{5-[3-(2,2,2-trifluoroethoxy)azetidin-1-yl]-1,2,4-oxadiazol-3-yl}-1,3,5-triazine-2,4-diamine], `CN(c1ccccc1)c1nc(N)nc(-c2noc(N3CC(COCCC(F)(F)F)C3)n2)n1` [Example 496, 2-N-methyl-2-N-phenyl-6-(5-{3-[(3,3,3-trifluoropropoxy)methyl]azetidin-1-yl}-1,2,4-oxadiazol-3-yl)-1,3,5-triazine-2,4-diamine] is 1.6-fold lower in IC50: 1980 nM for the first, 1220 nM for the second. The second is the more potent here.

First: CN(c1ccccc1)c1nc(N)nc(-c2noc(N3CC(COc4ccccc4)C3)n2)n1 [Example 495, N-Methyl-6-[5-(3-phenoxymethylazetidin-1-yl)-[1,2,4]oxadiazol-3-yl]-N-phenyl-[1,3,5]triazine-2,4-diamine]
Second: CN(c1ccccc1)c1nc(N)nc(-c2noc(N3CC(OCC4CC4)C3)n2)n1 [Example 498, 6-{5-[3-(cyclopropylmethoxy)azetidin-1-yl]-1,2,4-oxadiazol-3-yl}-2-N-methyl-2-N-phenyl-1,3,5-triazine-2,4-diamine]
The IC50 of the first is 2.1-fold higher: 1910 nM for the first, 902 nM for the second.

`CN(c1ccccc1)c1nc(N)nc(-c2noc(-c3ccc(COCC(F)(F)F)o3)n2)n1` [Example 497, 2-N-methyl-2-N-phenyl-6-(5-{5-[(2,2,2-trifluoroethoxy)methyl]furan-2-yl}-1,2,4-oxadiazol-3-yl)-1,3,5-triazine-2,4-diamine] and `CN(c1ccccc1)c1nc(N)nc(-c2noc(N3CCC(COCCC(F)(F)F)CC3)n2)n1` [Example 501, 2-N-methyl-2-N-phenyl-6-(5-{4-[(3,3,3-trifluoropropoxy)methyl]piperidin-1-yl}-1,2,4-oxadiazol-3-yl)-1,3,5-triazine-2,4-diamine] are within 1.5-fold of each other in IC50: 473 nM for the first, 344 nM for the second.

`CN(c1ccccc1)c1nc(N)nc(-c2noc(N3CC4CCC(C3)O4)n2)n1` [Example 500, 2-N-methyl-6-(5-{8-oxa-3-azabicyclo[3.2.1]octan-3-yl}-1,2,4-oxadiazol-3-yl)-2-N-phenyl-1,3,5-triazine-2,4-diamine] and `CC(C)S(=O)(=O)N1CCN(c2nc(-c3nc(N)nc(N(C)c4ccccc4)n3)no2)CC1` [Example 504, 2-N-methyl-2-N-phenyl-6-{5-[4-(propane-2-sulfonyl)piperazin-1-yl]-1,2,4-oxadiazol-3-yl}-1,3,5-triazine-2,4-diamine] cannot be ordered by IC50: > 9120 nM for the first, > 5370 nM for the second.

First: Nc1nc(Nc2ccccc2)nc(-c2noc(-c3cccnc3OCC(F)(F)F)n2)n1 [Example 502, 2-N-phenyl-6-{5-[2-(2,2,2-trifluoroethoxy)pyridin-3-yl]-1,2,4-oxadiazol-3-yl}-1,3,5-triazine-2,4-diamine]
Second: Nc1nc(Nc2ccccc2)nc(-c2noc(N3CC(Oc4ccccc4)C3)n2)n1 [Example 503, 6-[5-(3-phenoxyazetidin-1-yl)-1,2,4-oxadiazol-3-yl]-2-N-phenyl-1,3,5-triazine-2,4-diamine]
The IC50 of the first is higher: > 8950 nM for the first, 461 nM for the second. The second is the more potent here.

`CN(c1ccccc1)c1nc(N)nc(-c2noc(C3CCN(C(=O)OC(C)(C)C)CC3)n2)n1` [Example 505, tert-butyl 4-(3-{4-amino-6-[methyl(phenyl)amino]-1,3,5-triazin-2-yl}-1,2,4-oxadiazol-5-yl)piperidine-1-carboxylate] and `CC(C)CS(=O)(=O)N1CCC(c2nc(-c3nc(N)nc(N(C)c4ccccc4)n3)no2)CC1` [Example 507, 2-N-methyl-6-(5-{1-[(2-methylpropane)sulfonyl]piperidin-4-yl}-1,2,4-oxadiazol-3-yl)-2-N-phenyl-1,3,5-triazine-2,4-diamine] are within 1.5-fold of each other in IC50: 982 nM for the first, 1230 nM for the second.

Compared with `CN(c1ccccc1)c1nc(N)nc(-c2noc(C3CCN(S(=O)(=O)C4CC4)CC3)n2)n1` [Example 506, 6-{5-[1-(cyclopropanesulfonyl)piperidin-4-yl]-1,2,4-oxadiazol-3-yl}-2-N-methyl-2-N-phenyl-1,3,5-triazine-2,4-diamine], `CCC(C)S(=O)(=O)N1CCC(c2nc(-c3nc(N)nc(N(C)c4ccccc4)n3)no2)CC1` (stereo not shown) [Example 508, 6-{5-[1-(butane-2-sulfonyl)piperidin-4-yl]-1,2,4-oxadiazol-3-yl}-2-N-methyl-2-N-phenyl-1,3,5-triazine-2,4-diamine] is 2.9-fold lower in IC50: 7100 nM for the first, 2430 nM for the second.
